Molecules are shown by their SMILES.

In one assay the test system is SARS-CoV-2. Kind of assay: microbe, parasite or virus in culture. The conditions noted are these: Severe acute respiratory syndrome coronavirus 2, Vero C1008, 48 h.
For the compound `CC(C)(C)C(=O)Oc1ccc2c(c1)O[C@H](c1ccc(OCCN3CCCCC3)cc1)C1=C2COc2cc(OC(=O)C(C)(C)C)ccc21`, the IC50 was above 20 µM.
The same measure, in the same setting: next, `Cc1ccccc1C(=O)Nc1ccc(C(=O)N2CCCC(N(C)C)c3ccccc32)cc1` (configuration not stated) [MOZAVAPTAN]: above 20 µM; `COc1cc(C)c(/C=C/C(C)=C/C=C/C(C)=C/C(=O)O)c(C)c1C` [ACITRETIN]: above 20 µM; `CNCC(O)c1ccc(OC(=O)C(C)(C)C)c(OC(=O)C(C)(C)C)c1` (configuration not stated) [DIPIVEFRIN]: above 20 µM.
`C=C1C[C@@H]2[C@H](CC[C@]3(C)C(=O)CC[C@@H]23)[C@@]2(C)C=CC(=O)C=C12` [EXEMESTANE] had an IC50 above 20 µM.
Same read-out and setting: the value for `Nc1nc(=O)n([C@@H]2C=C[C@H](CO)O2)cc1F` [ELVUCITABINE] was above 20 µM.
Regarding `CN(C)CCc1c[nH]c2ccc(C[C@H]3COC(=O)N3)cc12` [ZOLMITRIPTAN], the IC50 was above 20 µM.
Same read-out and setting: next, `CCn1cc(C(=O)O)c(=O)c2cc(F)c(N3CCNC(C)C3)c(F)c21` (configuration not stated) [LOMEFLOXACIN]: above 20 µM.
Same read-out and setting: next, `O=C1c2cccc(O)c2C(=O)c2c(O)cccc21` [DANTHRON]: above 20 µM; `Cc1ccc(C(=O)N(CCCN)[C@@H](c2nc3cc(Cl)ccc3c(=O)n2Cc2ccccc2)C(C)C)cc1` [ISPINESIB]: above 20 µM.
The same measure, in the same setting: the value for `C=CC(=O)Nc1cccc(Nc2nc(Nc3ccc(OCCOC)cc3)ncc2F)c1` [SPEBRUTINIB] was above 20 µM; that for `CC(C)(C)NC(=O)c1nn(-c2ccc(F)cc2F)c2c1C1CCC2C1` (configuration not stated) was above 20 µM.
Take `CC(C)OC(=O)[C@H](C)NP(=O)(OC[C@H]1O[C@@H](n2ccc(=O)[nH]c2=O)[C@](C)(Cl)[C@@H]1O)Oc1ccccc1` (some centres not stated): the IC50 was above 20 µM.
In the case of `NS(=O)(=O)c1ccc(C(=O)O)cc1` [CARZENIDE], the IC50 is above 20 µM.
The same measure, in the same setting: next, `O=C(O)CC/C=C/CCC1C(OCc2ccc(-c3ccccc3)cc2)CC(O)C1N1CCCCC1` (configuration not stated): above 20 µM; `Sc1ncnc2nc[nH]c12` [MERCAPTOPURINE ANHYDROUS]: above 20 µM; `CC1C2Cc3ccc(O)cc3C1(C)CCN2C` (configuration not stated): above 20 µM.
Still for that read-out and setting: next, `CC(Cc1cccc(C(F)(F)F)c1)NCCOC(=O)c1ccccc1` (configuration not stated) [BENFLUOREX]: above 20 µM; `CC(C)(O/N=C(/C(=O)NC1C(=O)N2C(C(=O)O)=C(C[n+]3ccccc3)CSC12)c1csc(N)n1)C(=O)O` (configuration not stated): above 20 µM; `c1ccc2c(CC3=NCCN3)cccc2c1` [NAPHAZOLINE]: above 20 µM.
The same measure, in the same setting: the value for `O=C(/C=C/c1ccccc1)c1ccc(O)cc1O` [2',4'-DIHYDROXYCHALCONE] was above 20 µM; that for `Nc1ncnc2c([C@@H]3N[C@H](CO)[C@@H](O)[C@H]3O)c[nH]c12` was above 100 µM.
`COc1ccc2c(c1O)-c1c(OC)c(OC)cc3c1[C@H](C2)N(C)CC3` [ISOCORYDINE]: the IC50 is above 20 µM.
Compound `CCOc1ccc(Cc2nccc3cc(OCC)c(OCC)cc23)cc1OCC` [ETHAVERINE] returned an IC50 above 20 µM.
The same measure, in the same setting: the value for `Nc1nnc(-c2cccc(Cl)c2Cl)c(N)n1` [LAMOTRIGINE] was above 20 µM.
The same measure, in the same setting: next, `N=C(N)NCCCOc1ccccc1` [GUANOXYFEN]: above 20 µM; `CN(C)CCSc1nc2ccccc2cc1-c1ccccc1`: above 20 µM.
Same read-out and setting: the value for `CC(=O)OCC(=O)C1CCC2C3CC[C@H]4CC(O)CCC4(C)C3C(=O)CC12C` (some centres not stated) was above 20 µM.
Take `COc1c2ccccc2nc2occc12` [DICTAMNINE]: the IC50 was above 20 µM.
Still for that read-out and setting: next, `CCCCCCCCCCCCCCCCOCCCOP(=O)(O)CO[C@H](C)Cn1cnc2c(N)ncnc21` [TENOFOVIR EXALIDEX]: above 20 µM.
Same read-out and setting: next, `Nc1nc2c(ncn2COC(CO)CO)c(=O)[nH]1` [GANCICLOVIR]: above 20 µM.

Still in this assay, the particulars now being: Severe acute respiratory syndrome coronavirus 2, Vero C1008, 48 h, read-out: pIC50 (converted).
On to `CC(C)(C)C(=O)Oc1ccc2c(c1)O[C@H](c1ccc(OCCN3CCCCC3)cc1)C1=C2COc2cc(OC(=O)C(C)(C)C)ccc21`, for which the IC50 was above 20 µM.
With `Cc1ccccc1C(=O)Nc1ccc(C(=O)N2CCCC(N(C)C)c3ccccc32)cc1` (configuration not stated) [MOZAVAPTAN], the IC50 is above 20 µM.
Same read-out and setting: next, `COc1cc(C)c(/C=C/C(C)=C/C=C/C(C)=C/C(=O)O)c(C)c1C` [ACITRETIN]: above 20 µM.
Same read-out and setting: next, `CNCC(O)c1ccc(OC(=O)C(C)(C)C)c(OC(=O)C(C)(C)C)c1` (configuration not stated) [DIPIVEFRIN]: above 20 µM.
On the same count and under the same terms, next, `C=C1C[C@@H]2[C@H](CC[C@]3(C)C(=O)CC[C@@H]23)[C@@]2(C)C=CC(=O)C=C12` [EXEMESTANE]: above 20 µM.
With `Nc1nc(=O)n([C@@H]2C=C[C@H](CO)O2)cc1F` [ELVUCITABINE], the IC50 was above 20 µM.
The same measure, in the same setting: next, `CN(C)CCc1c[nH]c2ccc(C[C@H]3COC(=O)N3)cc12` [ZOLMITRIPTAN]: above 20 µM.
`CCn1cc(C(=O)O)c(=O)c2cc(F)c(N3CCNC(C)C3)c(F)c21` (configuration not stated) [LOMEFLOXACIN]: the IC50 is above 20 µM.
As for `O=C1c2cccc(O)c2C(=O)c2c(O)cccc21` [DANTHRON], the IC50 was above 20 µM.
Still for that read-out and setting: the value for `Cc1ccc(C(=O)N(CCCN)[C@@H](c2nc3cc(Cl)ccc3c(=O)n2Cc2ccccc2)C(C)C)cc1` [ISPINESIB] was above 20 µM.
On the same count and under the same terms, the value for `C=CC(=O)Nc1cccc(Nc2nc(Nc3ccc(OCCOC)cc3)ncc2F)c1` [SPEBRUTINIB] was above 20 µM.
On the same count and under the same terms, the value for `CC(C)(C)NC(=O)c1nn(-c2ccc(F)cc2F)c2c1C1CCC2C1` (configuration not stated) was above 20 µM; that for `CC(C)OC(=O)[C@H](C)NP(=O)(OC[C@H]1O[C@@H](n2ccc(=O)[nH]c2=O)[C@](C)(Cl)[C@@H]1O)Oc1ccccc1` (some centres not stated) was above 20 µM.
On to `NS(=O)(=O)c1ccc(C(=O)O)cc1` [CARZENIDE], for which the IC50 is above 20 µM.
On the same count and under the same terms, next, `O=C(O)CC/C=C/CCC1C(OCc2ccc(-c3ccccc3)cc2)CC(O)C1N1CCCCC1` (configuration not stated): above 20 µM; `Sc1ncnc2nc[nH]c12` [MERCAPTOPURINE ANHYDROUS]: above 20 µM; `CC1C2Cc3ccc(O)cc3C1(C)CCN2C` (configuration not stated): above 20 µM.
On the same count and under the same terms, the value for `CC(Cc1cccc(C(F)(F)F)c1)NCCOC(=O)c1ccccc1` (configuration not stated) [BENFLUOREX] was above 20 µM; that for `CC(C)(O/N=C(/C(=O)NC1C(=O)N2C(C(=O)O)=C(C[n+]3ccccc3)CSC12)c1csc(N)n1)C(=O)O` (configuration not stated) was above 20 µM; that for `c1ccc2c(CC3=NCCN3)cccc2c1` [NAPHAZOLINE] was above 20 µM.
Same read-out and setting: next, `O=C(/C=C/c1ccccc1)c1ccc(O)cc1O` [2',4'-DIHYDROXYCHALCONE]: above 20 µM; `Nc1ncnc2c([C@@H]3N[C@H](CO)[C@@H](O)[C@H]3O)c[nH]c12`: above 100 µM.
As to `COc1ccc2c(c1O)-c1c(OC)c(OC)cc3c1[C@H](C2)N(C)CC3` [ISOCORYDINE], the IC50 is above 20 µM.
For the compound `CCOc1ccc(Cc2nccc3cc(OCC)c(OCC)cc23)cc1OCC` [ETHAVERINE], the IC50 is above 20 µM.
The same measure, in the same setting: the value for `Nc1nnc(-c2cccc(Cl)c2Cl)c(N)n1` [LAMOTRIGINE] was above 20 µM; that for `N=C(N)NCCCOc1ccccc1` [GUANOXYFEN] was above 20 µM.
Same read-out and setting: next, `CN(C)CCSc1nc2ccccc2cc1-c1ccccc1`: above 20 µM.
Same read-out and setting: next, `CC(=O)OCC(=O)C1CCC2C3CC[C@H]4CC(O)CCC4(C)C3C(=O)CC12C` (some centres not stated): above 20 µM; `COc1c2ccccc2nc2occc12` [DICTAMNINE]: above 20 µM; `CCCCCCCCCCCCCCCCOCCCOP(=O)(O)CO[C@H](C)Cn1cnc2c(N)ncnc21` [TENOFOVIR EXALIDEX]: above 20 µM.
Turning to `Nc1nc2c(ncn2COC(CO)CO)c(=O)[nH]1` [GANCICLOVIR], the IC50 is above 20 µM.

For the origin of these results see ChEMBL document CHEMBL4651402, “Screening of ~5500 FDA-approved drugs and clinical candidates for anti-SARS-CoV-2 activity” (2021).
